# Source: patent US20100099698A1, “Compositions for Improving Skin Conditions Comprising Matrine or Its Oxidized Derivatives” (Biospectrum Inc., priority 2007, published 2010)
# Where two headings read alike, the source gives them in different places.
# Experiments:
# [1] = system: human skin; test: 24-hour cumulative patch test (Finn chamber), cumulative skin irritation; format: in vivo; settings: for Average reaction level: 9 patches, 30 adults, safe if below 3
# Experimental: In order to find out whether matrine and oxymatrine are safe for use on human skin, a skin safety test was conducted. Suitable for this was a cumulative skin irritation test.
# Squalene-based preparations containing matrine and oxymatrine in amounts of 1%, 5%, and 10% were applied in patches 9 times to the upper arms of 30 healthy adults once every other day for a total time period of 24 hours. This 24-hour cumulative patch test was conducted to determine whether matrine and oxymatrine irritates the skin or not.
# The Finn chamber (Epitest Ltd, Finland) was chosen as the patching method. The above preparation for external use on the skin was dropped into each chamber in an amount of 15 μl, and a patch was applied.
# Average reaction level=[{(Reaction index x reaction level)/No. of test subjects×maximum points (4 points)}×100]÷No. of test (9 times) Equation 2
# Points were marked in accordance with reaction level, for example, ± for 1 point, + for 2 points, and ++ for […]. The composition can be considered safe if the average reaction level is below 3.
# [2] = system: B16 mouse melanoma cells; test: Cytotoxicity at the test concentrations in B16 melanoma cells; format: cell-based; settings: 10 μM, 100 μM and 500 μM
# [3] = system: Human fibroblasts; test: Cytotoxicity to fibroblasts (MIT reagent, absorbance 540 nm); format: cell-based; settings: 1 μM, 10 μM and 50 μM; compared to RA (retinoic acid); FIG. 1
# Experimental: (§1) Human fibroblasts (commercially available from pacific) were seeded into a 6-well plate (2×10^5 cells/well) and the well plate was incubated in a 5% CO2 incubator for 24 hr at 37° C. After 24 hr, the medium in each well was removed and samples were treated with various concentrations, followed by incubating again for 24 hr. Following incubation, the cell medium was collected and was used as samples. To measure cytotoxicity of samples to fibroblasts, MIT reagent (1 mg/ml) was added to each well in 1/10 fold volume of the remaining medium, incubated for 3 hr and the medium was eliminated. The medium was dissolved in DMSO and its absorbance at 540 nm was measured.
# [4] = target: T1, collagenase (MMP-1) (Homo sapiens, UniProt P03956); test: Collagenase activity, Type 1 collagenase assay kit, PMA-induced; format: cell-based
# T1 construct: Following incubation, the cell medium was collected and was used as samples; endogenous in cells; host or cells: human fibroblasts (PMA-induced)
# T1 sequence (P03956 100-469): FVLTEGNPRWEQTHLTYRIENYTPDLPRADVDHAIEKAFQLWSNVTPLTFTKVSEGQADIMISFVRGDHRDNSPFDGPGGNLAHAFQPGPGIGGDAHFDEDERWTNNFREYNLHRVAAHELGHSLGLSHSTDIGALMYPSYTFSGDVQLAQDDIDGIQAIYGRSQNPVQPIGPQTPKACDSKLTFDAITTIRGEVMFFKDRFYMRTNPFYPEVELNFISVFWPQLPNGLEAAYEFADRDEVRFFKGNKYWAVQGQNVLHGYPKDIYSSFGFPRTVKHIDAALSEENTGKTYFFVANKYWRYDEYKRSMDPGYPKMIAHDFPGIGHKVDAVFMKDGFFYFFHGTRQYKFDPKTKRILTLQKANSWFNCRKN
# Experimental: as §1
# As a method of measuring the activity of collagenase, an enzyme that decomposes collagen, an antibody against collagenase was used. As material inducing collagenase activity, PMA (phorbol myristate acetate, Sigma) was treated. For measuring collagenase activity, a Type 1 collagenase assay kit (Amersham Biosciences, RPN2629) was used, and the absorbance was measured using an ELISA reader (Bio-Tek ELx808™ Series Ultra Microplate Reader, U.K). The measured average values were represented as mean±standard deviation.
# [5] = system: collagen (Type 1 collagen) biosynthesis; test: Collagen synthesis: procollagen type I C-peptide (PICP) EIA in medium of treated fibroblasts; format: cell-based; settings: 24 hr, human fibroblasts
# Experimental: as §1
# The extent of collagen synthesis was determined by measuring the amount of procollagen type I C-peptide (PICP) in cell medium using Procollagen Type I C-peptide EIA kit (MK101, Takara, Kyoto, Japan). The method was performed in accordance with manufacturer's protocol.
# [6] = system: B16 mouse melanoma cells; test: Inhibition of melanin production in melanoma cells; format: cell-based; settings: 72 h, read-out: Inhibitory rate of melanin production (%)
# Experimental: After measuring the inhibition of melanin production by matrine and oxymatrine using B16 mouse melanoma cells (Korean Cell Line Bank), the measurement was compared with that for the inhibition of melanin production by arbutin, known as a melanin production inhibitor.
# B16 mouse melanoma cells F10 (Korean Cell Line Bank) were seeded into each well of a 6-well plate (1×10^5 cells/well) in DMEM (Dulbecco's modified Eagle's media) containing 10% FBS (fetal bovine serum) and the cells were cultured to about more than 80% confluence by incubating in a CO2 incubator under conditions of 37° C. and 5.0% CO2. After cultivation, the medium was removed and samples were replaced in medium diluted at suitable concentration, followed by incubating for 3 days under conditions of 37° C. and 5.0% CO2. […] The cells removing medium were washed with PBS (phosphate buffer saline) and treated with trypsin to collect cells. Number of the collected cells was calculated using hematocytometer (Tiefe Depth Profondeur 0.100 mm, Paul Marienfeld GmbH & Co. KG, D.E), centrifuged at 5,000 to 10,000 rpm for 10 min and the supernatant was eliminated, thereby obtaining pellets. This cell pellets were dried at 60° C., 100 μl of 1M NaOH containing 10% DMSO was added to thereto, and intracellular melanin was obtained in incubator at 60° C. Then, the cell solution was measured for absorbance at 490 nm using microplate reader (Bio-Tek ELx8081U, U.S) and the amount of melanin per cell constant number was estimated.
# [7] = 5% in squalene, Week 1, of 30 subjects
# [8] = 10% in squalene, Week 1, of 30 subjects
compound,measurement,setting,value
"O=C1CCC[C@@H]2[C@H]3CCCN4CCC[C@@H](CN12)[C@@H]34 [Matrine, matrine]",Average reaction level,[1]; 1% in squalene,0
same,"No. of test subjects with reaction, 2nd, ±","[1]; 1% in squalene, Week 1, of 30 subjects",0
same,Average reaction level,[1]; 5% in squalene,0.09
same,"No. of test subjects with reaction, 1st, ±",[1]; [7],1
same,"No. of test subjects with reaction, 2nd, ±",[1]; [7],0
same,Average reaction level,[1]; 10% in squalene,0.18
same,"No. of test subjects with reaction, 1st, ±",[1]; [8],2
same,"No. of test subjects with reaction, 2nd, ±",[1]; [8],0
same,cytotoxicity,[2],did not show cytotoxicity
same,cytotoxicity against human fibroblasts compared to RA,[3],lower cytotoxicity
same,inhibition at 1 µM,[4],19%
same,inhibition at 10 µM,[4],20%
same,inhibition at 50 µM,[4],32%
same,Increasing rate of collagen synthesis (%),[5]; 1 μM,20%
same,Increasing rate of collagen synthesis (%),[5]; 10 μM,23%
same,Increasing rate of collagen synthesis (%),[5]; 50 μM,40%
same,inhibition at 10 µM,[6],11%
same,inhibition at 100 µM,[6],31%
same,inhibition at 500 µM,[6],39%
"O=C1CCC[C@@H]2[C@H]3CCC[N+]4([O-])CCC[C@@H](CN12)[C@@H]34 (stereo partly shown) [Oxymatrine, oxymatrine]","No. of test subjects with reaction, 1st, ±","[1]; human, in vivo",2
same,"No. of test subjects with reaction, 2nd, ±","[1]; human, in vivo",0
same,"No. of test subjects with reaction, 1st, ±",[1]; in vivo,−
same,inhibition at 1 µM,[4],6%
same,inhibition at 10 µM,[4],13%
same,inhibition at 50 µM,[4],17%
same,Increasing rate of collagen synthesis (%),[5]; 1 μM,11%
same,Increasing rate of collagen synthesis (%),[5]; 10 μM,15%
same,Increasing rate of collagen synthesis (%),[5]; 50 μM,22%
same,inhibition at 10 µM,"[6]; 10 μM, 3 days",13%
same,inhibition at 100 µM,"[6]; 100 μM, 3 days",27%
same,inhibition at 500 µM,"[6]; 500 μM, 3 days",31%
